Series [1] has as its system HUVEC. Put plainly: Cytotoxicity against HUVEC after 24 hrs by MTT assay. The class given is cell-based. The conditions noted are these: human.
The subject of series [2] is HUVEC. As to the kind of experiment: Radioprotective activity against 5 Gy gamma radiation-mediated cell damage in HUVEC assessed as reduction of phopsho-p53 levels at 0.1 to 10 uM by Western blot method. The conditions noted are these: Homo sapiens. The class given is functional, cell-based.
Series [3] concerns HUVEC. As to the kind of experiment: Radioprotective activity against 5 Gy gamma radiation-mediated cell damage in HUVEC assessed as reduction of total p53 levels at 0.1 to 10 uM by Western blot method. The class given is functional, cell-based. The conditions noted are these: Homo sapiens.
The test system of series [4] is HUVEC. As to the kind of experiment: Radioprotective activity against 5 Gy gamma radiation-mediated cell damage in HUVEC assessed as increase in cell survival at 0.1 to 10 uM after 48 hrs by MTT assay. The conditions noted are these: Homo sapiens. It is filed as functional, cell-based.
Series [5] deals with HUVEC. Put plainly: Radioprotective activity against 5 Gy gamma radiation-mediated cell damage in HUVEC assessed as necrotic cells at 1 uM preincubated for 2 hrs followed by 5 Gy gamma irradiation and measured after 24 hrs by annexin-V-FITC/propidium iodide staining-based flow cytometric method (reference value: 3.5%). The class given is functional, Homo sapiens.
The subject of series [6] is HUVEC. Put plainly: Radioprotective activity against 5 Gy gamma radiation-mediated cell damage in HUVEC assessed as viable cells at 0.1 uM preincubated for 2 hrs followed by 5 Gy gamma irradiation and measured after 24 hrs by annexin-V-FITC/propidium iodide staining-based flow cytometric method (reference value: 65.8%). The conditions noted are these: Homo sapiens, light or radiation study, read-out: Activity. The class given is functional.

In series [7] the test system is HUVEC. Put plainly: Radioprotective activity against 5 Gy gamma radiation-mediated cell damage in HUVEC assessed as viable cells at 10 uM preincubated for 2 hrs followed by 5 Gy gamma irradiation and measured after 24 hrs by annexin-V-FITC/propidium iodide staining-based flow cytometric method (reference value: 65.8%). The class given is functional. The conditions noted are these: Homo sapiens, light or radiation study, read-out: Activity.

In series [8] the test system is HUVEC. As to the kind of experiment: Radioprotective activity against 5 Gy gamma radiation-mediated cell damage in HUVEC assessed as early apoptotic cells at 0.1 uM preincubated for 2 hrs followed by 5 Gy gamma irradiation and measured after 24 hrs by annexin-V-FITC/propidium iodide staining-based flow cytometric method (reference value: 21.2%). It is filed as functional, Homo sapiens.

Series [9] has as its system HUVEC. As to the kind of experiment: Radioprotective activity against 5 Gy gamma radiation-mediated cell damage in HUVEC assessed as viable cells at 1 uM preincubated for 2 hrs followed by 5 Gy gamma irradiation and measured after 24 hrs by annexin-V-FITC/propidium iodide staining-based flow cytometric method (reference value: 65.8%). The class given is functional. The conditions noted are these: Homo sapiens, light or radiation study, read-out: Activity.

In series [10] the test system is HUVEC. As to the kind of experiment: Radioprotective activity against 5 Gy gamma radiation-mediated cell damage in HUVEC assessed as decrease in Bax levels at 0.1 to 10 uM by Western blot method. The class given is functional, cell-based. The conditions noted are these: Homo sapiens.
Series [11] deals with HUVEC. As to the kind of experiment: Radioprotective activity against 5 Gy gamma radiation-mediated cell damage in HUVEC assessed as late apoptotic cells at 0.1 uM preincubated for 2 hrs followed by 5 Gy gamma irradiation and measured after 24 hrs by annexin-V-FITC/propidium iodide staining-based flow cytometric method (reference value: 9.5%). It is filed as functional, Homo sapiens.

For series [12], the system named is HUVEC. As to the kind of experiment: Radioprotective activity against 5 Gy gamma radiation-mediated cell damage in HUVEC assessed as decrease in caspase-3 activation at 0.1 to 10 uM by Western blot method. It is filed as functional, cell-based. The conditions noted are these: Homo sapiens.
In series [13] the test system is HUVEC. As to the kind of experiment: Radioprotective activity against 5 Gy gamma radiation-mediated cell damage in HUVEC assessed as increase in Bcl-2 levels at 0.1 to 10 uM by Western blot method. The conditions noted are these: Homo sapiens. It is filed as functional, cell-based.
Series [14] has as its system HUVEC. As to the kind of experiment: Radioprotective activity against 5 Gy gamma radiation-mediated cell damage in HUVEC assessed as early apoptotic cells at 1 uM preincubated for 2 hrs followed by 5 Gy gamma irradiation and measured after 24 hrs by annexin-V-FITC/propidium iodide staining-based flow cytometric method (reference value: 21.2%). The class given is functional, Homo sapiens.

Series [15] deals with HUVEC. Put plainly: Radioprotective activity against 5 Gy gamma radiation-mediated cell damage in HUVEC assessed as necrotic cells at 0.1 uM preincubated for 2 hrs followed by 5 Gy gamma irradiation and measured after 24 hrs by annexin-V-FITC/propidium iodide staining-based flow cytometric method (reference value: 3.5%). The class given is functional, Homo sapiens.
The test system of series [16] is HUVEC. Put plainly: Radioprotective activity against 5 Gy gamma radiation-mediated cell damage in HUVEC assessed as necrotic cells at 10 uM preincubated for 2 hrs followed by 5 Gy gamma irradiation and measured after 24 hrs by annexin-V-FITC/propidium iodide staining-based flow cytometric method (reference value: 3.5%). It is filed as functional, Homo sapiens.
For series [17], the system named is HUVEC. As to the kind of experiment: Radioprotective activity against 5 Gy gamma radiation-mediated cell damage in HUVEC assessed as late apoptotic cells at 1 uM preincubated for 2 hrs followed by 5 Gy gamma irradiation and measured after 24 hrs by annexin-V-FITC/propidium iodide staining-based flow cytometric method (reference value: 9.5%). It is filed as functional, Homo sapiens.

Series [18] deals with HUVEC. As to the kind of experiment: Radioprotective activity against 5 Gy gamma radiation-mediated cell damage in HUVEC assessed as cell survival at 0.1 uM preincubated for 2 hrs followed by 5 Gy gamma irradiation and measured after 48 hrs by MTT assay relative to control. The class given is functional. The conditions noted are these: Homo sapiens, light or radiation study, read-out: Survival.

The test system of series [19] is HUVEC. Put plainly: Radioprotective activity against 5 Gy gamma radiation-mediated cell damage in HUVEC assessed as late apoptotic cells at 10 uM preincubated for 2 hrs followed by 5 Gy gamma irradiation and measured after 24 hrs by annexin-V-FITC/propidium iodide staining-based flow cytometric method (reference value: 9.5%). The class given is functional, Homo sapiens.

The test system of series [20] is HUVEC. As to the kind of experiment: Radioprotective activity against 5 Gy gamma radiation-mediated cell damage in HUVEC assessed as early apoptotic cells at 10 uM preincubated for 2 hrs followed by 5 Gy gamma irradiation and measured after 24 hrs by annexin-V-FITC/propidium iodide staining-based flow cytometric method (reference value: 21.2%). It is filed as functional, Homo sapiens.

Activity calls are given as the source filed them. No cut-off for these calls is given here.

On to `O=C(O)c1ccc(/C=C/S(=O)(=O)Cc2ccc(OC(F)(F)F)cc2)cc1`, for which the Activity entry was “Toxic” with HUVEC [1]; 3.4% with HUVEC [5]; 7.8% in the series on HUVEC [8]; 4.7% in the series with HUVEC [11]; 8.5% in the series with HUVEC [14]; 4.3% with HUVEC [15]. The Activity in the series on HUVEC [16] is reported as 3%; in the series with HUVEC [17], 6.2%; with HUVEC [19], 8.1%; with HUVEC [20] it was 7%. In addition, the result in the series with HUVEC [2], in the series with HUVEC [3], in the series with HUVEC [4], in the series on HUVEC [10], with HUVEC [12] and with HUVEC [13] was Active. The figures for the viability at 0.1 µM in the series with HUVEC [6] and in the series on HUVEC [18] were 83.3% and 50%, respectively. Also, in the series on HUVEC [7], the viability at 10 µM stood at 81.9%. Moreover, the viability at 1 µM in the series on HUVEC [9] is 81.9%.

Values taken from ChEMBL document CHEMBL4261498, “Synthesis, characterization, and radioprotective activity of α,β-unsaturated aryl sulfone analogs and their Tempol conjugates” (Medchemcomm, 2017).
